The values below come from ChEMBL document CHEMBL1909046, “DrugMatrix in vitro pharmacology data”.

Data set [1] is described as follows: DRUGMATRIX: Tumor Necrosis Factor (TNF), Non-Selective radioligand binding (ligand: [125I] TNF-alpha). Format: cell membranes, Membrane. As to conditions: u-937; Not Active = under 50% inhibition at 10 µM.
Another data set addresses Cannabinoid receptor 1 (Homo sapiens, UniProt P21554). Format: cell membranes, Membrane. As to conditions: chem-1.
In data set [2] the target is T1, C-C chemokine receptor type 4 (Homo sapiens, UniProt P51679). Note: in other assays of this panel Not Active means under 50% inhibition at 10 µM.
T1 sequence (P51679 whole entry): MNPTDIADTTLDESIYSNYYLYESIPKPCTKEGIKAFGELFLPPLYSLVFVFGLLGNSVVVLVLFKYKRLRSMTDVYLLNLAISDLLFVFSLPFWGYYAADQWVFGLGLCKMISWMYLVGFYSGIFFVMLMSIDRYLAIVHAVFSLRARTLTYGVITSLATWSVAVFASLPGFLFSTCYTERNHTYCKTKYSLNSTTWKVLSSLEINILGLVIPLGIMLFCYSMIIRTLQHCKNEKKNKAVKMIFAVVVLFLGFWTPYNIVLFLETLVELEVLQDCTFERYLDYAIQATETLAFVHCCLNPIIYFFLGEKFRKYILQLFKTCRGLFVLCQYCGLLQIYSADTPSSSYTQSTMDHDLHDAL
The format is cell membranes, Chem-1, Membrane. Conditions: for IC50: chem-1.

A short description of data set [3]: DRUGMATRIX: GABAA, Chloride Channel, TBOB radioligand binding (ligand: [3H] TBOB). The format is cell membranes, Rattus norvegicus, Wistar, Cerebral cortex, Membrane. As to conditions: Not Active = under 50% inhibition at 10 µM.
The target of data set [4] is Mitogen-activated protein kinase 14 (Homo sapiens, UniProt Q16539). The arrangement: species or system Escherichia coli.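 Note: inhibition of p38alpha enzyme activity in a biochemical kinase assay, with myelin basic protein serving as substrate; in other assays of this panel Not Active means under 50% inhibition at 10 µM.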
Sequence of Mitogen-activated protein kinase 14 (Q16539 whole entry): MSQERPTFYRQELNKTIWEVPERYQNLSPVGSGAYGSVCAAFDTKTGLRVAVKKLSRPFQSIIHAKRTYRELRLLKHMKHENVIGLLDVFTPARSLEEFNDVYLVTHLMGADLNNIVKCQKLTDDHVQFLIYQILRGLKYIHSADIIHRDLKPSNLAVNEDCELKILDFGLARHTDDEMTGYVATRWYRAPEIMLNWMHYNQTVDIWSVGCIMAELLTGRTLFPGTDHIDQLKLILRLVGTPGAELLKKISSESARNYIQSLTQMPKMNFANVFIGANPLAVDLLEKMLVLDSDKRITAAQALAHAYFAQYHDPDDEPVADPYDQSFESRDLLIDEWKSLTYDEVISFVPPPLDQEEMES
The target of another data set is Acetylcholinesterase (Homo sapiens, UniProt P22303). Kind of data set: DRUGMATRIX: Acetylcholinesterase enzyme inhibition (substrate: acetylthiocholine). The format is cell-based, HEK293. As to conditions: Not Active = under 50% inhibition at 10 µM; for IC50: hek293.
Sequence of Acetylcholinesterase (P22303 whole entry): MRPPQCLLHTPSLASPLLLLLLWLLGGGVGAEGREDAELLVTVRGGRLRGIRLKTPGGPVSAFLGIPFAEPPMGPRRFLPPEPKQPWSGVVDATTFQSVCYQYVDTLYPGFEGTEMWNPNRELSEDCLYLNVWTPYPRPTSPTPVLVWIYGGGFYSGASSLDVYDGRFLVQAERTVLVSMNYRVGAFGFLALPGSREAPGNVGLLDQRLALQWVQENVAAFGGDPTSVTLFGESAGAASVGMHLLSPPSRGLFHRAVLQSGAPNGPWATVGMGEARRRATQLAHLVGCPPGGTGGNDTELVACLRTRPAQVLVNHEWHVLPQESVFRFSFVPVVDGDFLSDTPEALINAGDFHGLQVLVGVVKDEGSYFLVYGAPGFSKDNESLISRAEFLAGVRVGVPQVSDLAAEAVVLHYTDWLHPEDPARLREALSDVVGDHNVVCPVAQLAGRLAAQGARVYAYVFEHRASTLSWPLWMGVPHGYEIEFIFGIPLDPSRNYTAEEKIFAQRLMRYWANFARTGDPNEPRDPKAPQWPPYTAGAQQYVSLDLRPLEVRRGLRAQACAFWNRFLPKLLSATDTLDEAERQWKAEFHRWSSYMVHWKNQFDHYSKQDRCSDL
The next data set addresses Adenosine receptor A2a (Homo sapiens, UniProt P29274). Kind of data set: DRUGMATRIX: Adenosine A2A radioligand binding (ligand: […]). The format is cell membranes, Membrane. Conditions: hek293; Not Active = under 50% inhibition at 10 µM.
The next data set deals with T2, Cytochrome P450 2A6 (Homo sapiens, UniProt P11509).
T2 sequence (P11509 whole entry): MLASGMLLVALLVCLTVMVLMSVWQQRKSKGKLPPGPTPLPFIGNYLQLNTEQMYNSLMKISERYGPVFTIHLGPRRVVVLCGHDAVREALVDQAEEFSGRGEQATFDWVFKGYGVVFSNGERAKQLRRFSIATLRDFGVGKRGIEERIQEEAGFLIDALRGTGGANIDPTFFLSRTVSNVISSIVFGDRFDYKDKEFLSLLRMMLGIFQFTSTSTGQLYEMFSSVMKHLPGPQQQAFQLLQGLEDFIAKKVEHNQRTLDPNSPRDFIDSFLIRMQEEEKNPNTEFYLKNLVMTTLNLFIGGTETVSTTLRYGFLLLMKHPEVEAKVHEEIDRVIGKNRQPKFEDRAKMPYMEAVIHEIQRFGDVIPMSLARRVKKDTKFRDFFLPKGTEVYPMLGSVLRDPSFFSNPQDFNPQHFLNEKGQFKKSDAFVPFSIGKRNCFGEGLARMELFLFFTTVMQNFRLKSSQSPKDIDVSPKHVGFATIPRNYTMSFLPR
Conditions: bti-tn-5b1-4.

pIC50, pKi: −log10 of the molar value.

Sequence of Adenosine receptor A2a (P29274 whole entry): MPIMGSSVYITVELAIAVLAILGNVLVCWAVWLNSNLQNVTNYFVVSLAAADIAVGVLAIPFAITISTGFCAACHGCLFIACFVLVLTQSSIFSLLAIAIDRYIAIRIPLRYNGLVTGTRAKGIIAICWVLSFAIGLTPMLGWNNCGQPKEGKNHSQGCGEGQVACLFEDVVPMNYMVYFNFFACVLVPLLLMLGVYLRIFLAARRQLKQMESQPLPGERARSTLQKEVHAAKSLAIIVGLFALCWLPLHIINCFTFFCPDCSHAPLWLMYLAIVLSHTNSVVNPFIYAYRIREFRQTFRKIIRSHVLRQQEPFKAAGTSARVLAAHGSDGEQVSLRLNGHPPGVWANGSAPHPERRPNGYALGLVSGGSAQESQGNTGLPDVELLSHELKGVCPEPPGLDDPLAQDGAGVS
Sequence of Cannabinoid receptor 1 (P21554 whole entry): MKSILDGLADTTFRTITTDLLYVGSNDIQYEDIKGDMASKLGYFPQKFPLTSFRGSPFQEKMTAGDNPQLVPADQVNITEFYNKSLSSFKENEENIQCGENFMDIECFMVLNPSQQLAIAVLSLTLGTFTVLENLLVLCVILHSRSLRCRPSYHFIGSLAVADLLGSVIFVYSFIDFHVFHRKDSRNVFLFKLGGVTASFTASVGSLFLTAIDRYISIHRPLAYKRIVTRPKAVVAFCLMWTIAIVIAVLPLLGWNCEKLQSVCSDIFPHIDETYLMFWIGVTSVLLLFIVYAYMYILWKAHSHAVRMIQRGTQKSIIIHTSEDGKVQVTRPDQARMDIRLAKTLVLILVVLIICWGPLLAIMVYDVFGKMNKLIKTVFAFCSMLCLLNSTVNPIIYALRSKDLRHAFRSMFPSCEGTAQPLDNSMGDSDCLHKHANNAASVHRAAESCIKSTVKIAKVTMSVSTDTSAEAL

Take `Cc1c(C)c2c(c(C)c1O)CCC(C)(COc1ccc(CC3SC(=O)NC3=O)cc1)O2` (configuration not stated) [TROGLITAZONE]: the IC50 result (in data set [1]; against Cannabinoid receptor 1; in data set [2]; in data set [3]; in data set [4]; against Acetylcholinesterase) was “Not Active” each time. In addition, the IC50 result on Adenosine receptor A2a and against Cytochrome P450 2A6 was “Not Active” throughout. Further, the Ki result (in data set [1]; in data set [3]; at Cytochrome P450 2A6) was “Not Active” throughout.

As for `c1ccc([C@H]2CN3CCSC3=N2)cc1` [LEVAMISOLE], the IC50 result (in data set [1]; on Cannabinoid receptor 1; in data set [2]; in data set [3]; in data set [4]; against Acetylcholinesterase) was “Not Active” each time. Moreover, the IC50 entry at Adenosine receptor A2a and against Cytochrome P450 2A6 was “Not Active” throughout. The Ki entry (in data set [1]; in data set [3]; on Cytochrome P450 2A6) was “Not Active” throughout.

With `CC[C@]1(O)C[C@H]2CN(CCc3c([nH]c4ccccc34)[C@@](C(=O)OC)(c3cc4c(cc3OC)N(C=O)[C@H]3[C@@](O)(C(=O)OC)[C@H](OC(C)=O)[C@]5(CC)C=CCN6CC[C@]43[C@@H]65)C2)C1` [VINCRISTINE], the IC50 entry (in data set [1]; against Cannabinoid receptor 1; in data set [2]; in data set [3]; in data set [4]; against Acetylcholinesterase) was “Not Active” throughout. The IC50 entry at Adenosine receptor A2a and against Cytochrome P450 2A6 was “Not Active” each time. Further, the Ki result (in data set [1]; in data set [3]; on Cytochrome P450 2A6) was “Not Active” in each case.

Turning to `O=c1ncn2nc(Sc3ccc(F)cc3F)ccc2c1-c1c(Cl)cccc1Cl` [NEFLAMAPIMOD], the IC50 entry (in data set [1]; against Cannabinoid receptor 1; in data set [2]; in data set [3]; at Acetylcholinesterase; at Adenosine receptor A2a) was “Not Active” each time. In addition, on Cytochrome P450 2A6, the IC50 result was “Not Active”. The Ki result (in data set [1]; in data set [3]; at Cytochrome P450 2A6) was “Not Active” throughout.

Regarding `NS(=O)(=O)c1cc2c(cc1Cl)NC(C(Cl)Cl)NS2(=O)=O` (configuration not stated) [TRICHLORMETHIAZIDE], the IC50 result (in data set [1]; at Cannabinoid receptor 1; in data set [2]; in data set [3]; in data set [4]; against Acetylcholinesterase) was “Not Active” in each case. Besides, the IC50 entry at Adenosine receptor A2a and at Cytochrome P450 2A6 was “Not Active” throughout. The Ki result (in data set [1]; in data set [3]; on Cytochrome P450 2A6) was “Not Active” in each case.

As to `CCCOc1ccccc1-c1nc2nn[nH]c2c(=O)[nH]1` [ZAPRINAST], the IC50 result (in data set [1]; against Cannabinoid receptor 1; in data set [2]; in data set [3]; in data set [4]; against Acetylcholinesterase) was “Not Active” in each case. The IC50 result on Adenosine receptor A2a and on Cytochrome P450 2A6 was “Not Active” in each case. In addition, the Ki result (in data set [1]; in data set [3]; at Cytochrome P450 2A6) was “Not Active” in each case.

`N#CC(C#N)=Cc1ccc(O)c(O)c1` [TYRPHOSTIN 23]: the IC50 entry (in data set [1]; against Cannabinoid receptor 1; in data set [2]; in data set [3]; in data set [4]; on Acetylcholinesterase) was “Not Active” each time. Also, the IC50 entry at Adenosine receptor A2a and against Cytochrome P450 2A6 was “Not Active” throughout. Moreover, the Ki entry (in data set [1]; in data set [3]; at Cytochrome P450 2A6) was “Not Active” each time.

With `C=CCC1(C(C)CCC)C(=O)NC(=O)NC1=O` (configuration not stated) [SECOBARBITAL], the IC50 result (in data set [1]; on Cannabinoid receptor 1; in data set [2]; in data set [3]; in data set [4]; against Acetylcholinesterase) was “Not Active” in each case. The IC50 entry on Adenosine receptor A2a and against Cytochrome P450 2A6 was “Not Active” in each case. Also, the Ki entry (in data set [1]; in data set [3]; at Cytochrome P450 2A6) was “Not Active” each time.

Regarding `OCCN(CCO)c1nc(N2CCCCC2)c2nc(N(CCO)CCO)nc(N3CCCCC3)c2n1` [DIPYRIDAMOLE], the IC50 entry (in data set [1]; on Cannabinoid receptor 1; in data set [2]; in data set [3]; in data set [4]; on Acetylcholinesterase) was “Not Active” each time. The IC50 entry on Adenosine receptor A2a and on Cytochrome P450 2A6 was “Not Active” each time. The Ki result (in data set [1]; in data set [3]; on Cytochrome P450 2A6) was “Not Active” each time.

As for `Nc1c2c(nc3ccccc13)CCCC2` [TACRINE], the IC50 result (in data set [1]; against Cannabinoid receptor 1; in data set [2]; in data set [3]; in data set [4]; at Adenosine receptor A2a) was “Not Active” throughout. Moreover, at Cytochrome P450 2A6, the IC50 entry was “Not Active”. Also, the Ki result (in data set [1]; in data set [3]; at Cytochrome P450 2A6) was “Not Active” each time.

For the compound `Cn1ccnc1S` [METHIMAZOLE], the IC50 entry (in data set [1]; at Cannabinoid receptor 1; in data set [2]; in data set [3]; in data set [4]; against Acetylcholinesterase) was “Not Active” throughout. Further, the IC50 entry at Adenosine receptor A2a and on Cytochrome P450 2A6 was “Not Active” throughout. Also, the Ki result (in data set [1]; in data set [3]; at Cytochrome P450 2A6) was “Not Active” each time.

Turning to `CC/C(=C(\c1ccccc1)c1ccc(OCCN(C)C)cc1)c1ccccc1` [TAMOXIFEN], the IC50 entry (against Cannabinoid receptor 1; in data set [2]; in data set [4]; on Acetylcholinesterase; against Cytochrome P450 2A6) was “Not Active” each time. The Ki result at Cytochrome P450 2A6 is given as “Not Active”.

Regarding `Nc1nc2ccc(OC(F)(F)F)cc2s1` [RILUZOLE], the IC50 entry (in data set [1]; against Cannabinoid receptor 1; in data set [2]; in data set [3]; in data set [4]; against Acetylcholinesterase) was “Not Active” throughout. Moreover, the IC50 result on Adenosine receptor A2a is on record as “Not Active”. The Ki result in data set [1] and in data set [3] was “Not Active” throughout.

As for `CN1CCN(CCCN2c3ccccc3Sc3ccc(Cl)cc32)CC1` [PROCHLORPERAZINE], the IC50 result (against Cannabinoid receptor 1; in data set [2]; in data set [4]; on Acetylcholinesterase; on Adenosine receptor A2a; against Cytochrome P450 2A6) was “Not Active” throughout. The Ki entry at Cytochrome P450 2A6 is recorded as “Not Active”.

One may read the pIC50 as −log10 of the IC50, conventionally taken in molar units. In the case of `CC(C)N1CCN(c2ccc(OCC3COC(Cn4cncn4)(c4ccc(Cl)cc4Cl)O3)cc2)CC1` (configuration not stated) [TERCONAZOLE], the IC50 result (against Cannabinoid receptor 1; in data set [2]; in data set [3]; in data set [4]; at Adenosine receptor A2a; at Cytochrome P450 2A6) was “Not Active” each time. Besides, the Ki result (in data set [3]; at Cytochrome P450 2A6) was “Not Active” throughout. Further, the pIC50 at Acetylcholinesterase (read-out: IC50) is 4.67.

As to `Cc1nc2n(c(=O)c1CCN1CCC(c3noc4cc(F)ccc34)CC1)CCCC2` [RISPERIDONE], the IC50 result (on Cannabinoid receptor 1; in data set [2]; in data set [4]; at Acetylcholinesterase; on Adenosine receptor A2a; at Cytochrome P450 2A6) was “Not Active” each time. The Ki result at Cytochrome P450 2A6 is “Not Active”.

For orientation: pKi means the Ki on a negative log10 scale, so that one unit is a factor of ten. Turning to `CCCCc1oc2ccccc2c1C(=O)c1cc(I)c(OCCN(CC)CC)c(I)c1` [AMIODARONE], the IC50 result (against Cannabinoid receptor 1; in data set [4]; against Acetylcholinesterase; on Adenosine receptor A2a; against Cytochrome P450 2A6) was “Not Active” each time. In addition, the pIC50 in data set [2] (read-out: IC50) is 4.66. In addition, in data set [2] (read-out: Ki), the pKi is 4.94. Besides, at Cytochrome P450 2A6, the Ki result is recorded as “Not Active”.

Turning to `N[C@@H](Cc1cc(I)c(Oc2ccc(O)c(I)c2)c(I)c1)C(=O)O` [LIOTHYRONINE], the IC50 result (against Cannabinoid receptor 1; in data set [2]; in data set [4]; against Acetylcholinesterase; on Adenosine receptor A2a; against Cytochrome P450 2A6) was “Not Active” in each case. Further, on Cytochrome P450 2A6, the Ki entry is given as “Not Active”.
